Assay results reported in patent US6239138A, “Vitronectin receptor antagonist” (SmithKline Beecham Corporation, priority 1999, dated 2001).

Key:
[1] = biological target: T1, αvβ3 (vitronectin receptor) (Homo sapiens, UniProt P05106+P06756); experiment: Solid-phase [3H]-SK&F-107260 binding to αvβ3 (inhibition of vitronectin binding); details: [3H]-SK&F-107260 as ligand, 5.0 nM; human placenta or platelet αvβ3
T1 construct: Human placenta or human platelet αvβ3; from tissue; host or cells: human placenta or human platelets
Experimental: Solid-Phase [^3 H]-SK&F-107260 Binding to αvβ3 : Human placenta or human platelet αvβ3 (0.1-0.3 mg/mL) in buffer T (containing 2 mM CaCl2 and 1% octylglucoside) was diluted with buffer T containing 1 mM CaCl2, 1 mM MnCl2, 1 mM MgCl2 (buffer A) and 0.05% NaN3, and then immediately added to 96-well ELISA plates (Corning, New York, N.Y.) at 0.1 mL per well. 0.1-0.2 ,g of αvβ3 was added per well. The plates were incubated overnight at 4° C. At the time of the experiment, the wells were washed once with buffer A and were incubated with 0.1 mL of 3.5% bovine serum albumin in the same buffer for 1 hr at room temperature. Following incubation the wells were aspirated completely and washed twice with 0.2 mL buffer A. […]
The plates were incubated for 1 hr at room temperature. […] The receptors were solubilized with 0.1 mL of 1% SDS and the bound [^3 H]-SK&F-107260 was determined by liquid scintillation counting with the addition of 3 mL Ready Safe in a Beckman LS Liquid Scintillation Counter, with 40% efficiency. Nonspecific binding of [^3 H]-SK&F-107260 was determined in the presence of 2 LM SK&F-107260 and was consistently less than 1% of total radioligand input. […] The Ki (dissociation constant of the antagonist) was calculated according to the equation: Ki =IC50 /(1+L/Kd), where L and Kd were the concentration and the dissociation constant of [^3 H]-SK&F-107260, respectively.

osteoclasts = details: Sato et al. 1990 (echistatin); Bertolini et al. (cyclic peptide); cited from earlier work
bone resorption [2] = details: Sato et al., J. Cell Biol. 1990; cited from earlier work
bone resorption [3] = details: rat; Fisher et al., Endocrinology 1993; cited from earlier work

T1 sequence (P06756 31-889 limits assumed): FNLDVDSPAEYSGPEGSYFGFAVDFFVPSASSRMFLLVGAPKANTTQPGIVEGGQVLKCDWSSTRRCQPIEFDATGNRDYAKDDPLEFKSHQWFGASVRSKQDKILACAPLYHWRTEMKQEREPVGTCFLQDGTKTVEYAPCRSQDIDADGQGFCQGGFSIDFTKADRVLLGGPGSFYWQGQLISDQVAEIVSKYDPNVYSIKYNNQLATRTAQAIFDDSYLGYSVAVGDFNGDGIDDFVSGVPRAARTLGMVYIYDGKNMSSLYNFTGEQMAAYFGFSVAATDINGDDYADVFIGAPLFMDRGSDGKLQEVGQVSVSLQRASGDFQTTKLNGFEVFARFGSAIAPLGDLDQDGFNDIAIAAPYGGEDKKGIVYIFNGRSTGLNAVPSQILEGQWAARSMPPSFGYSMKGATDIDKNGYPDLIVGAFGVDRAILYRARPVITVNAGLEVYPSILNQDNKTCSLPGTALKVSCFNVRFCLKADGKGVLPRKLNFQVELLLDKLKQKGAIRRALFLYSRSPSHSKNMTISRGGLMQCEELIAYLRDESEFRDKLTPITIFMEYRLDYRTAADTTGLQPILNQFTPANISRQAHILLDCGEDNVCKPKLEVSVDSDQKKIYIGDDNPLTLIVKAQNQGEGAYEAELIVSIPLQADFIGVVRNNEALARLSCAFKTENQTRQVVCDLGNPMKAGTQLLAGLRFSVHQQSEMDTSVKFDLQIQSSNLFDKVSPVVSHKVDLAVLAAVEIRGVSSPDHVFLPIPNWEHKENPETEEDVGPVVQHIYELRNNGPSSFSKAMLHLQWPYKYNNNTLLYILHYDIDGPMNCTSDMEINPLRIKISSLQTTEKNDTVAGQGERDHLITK
T1 sequence (P06756 891-1048 partner limits assumed): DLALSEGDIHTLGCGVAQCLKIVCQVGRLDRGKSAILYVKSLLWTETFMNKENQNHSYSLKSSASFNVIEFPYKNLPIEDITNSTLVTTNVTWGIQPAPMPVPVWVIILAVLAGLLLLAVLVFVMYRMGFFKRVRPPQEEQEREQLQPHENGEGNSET
T1 sequence (P05106 27-788): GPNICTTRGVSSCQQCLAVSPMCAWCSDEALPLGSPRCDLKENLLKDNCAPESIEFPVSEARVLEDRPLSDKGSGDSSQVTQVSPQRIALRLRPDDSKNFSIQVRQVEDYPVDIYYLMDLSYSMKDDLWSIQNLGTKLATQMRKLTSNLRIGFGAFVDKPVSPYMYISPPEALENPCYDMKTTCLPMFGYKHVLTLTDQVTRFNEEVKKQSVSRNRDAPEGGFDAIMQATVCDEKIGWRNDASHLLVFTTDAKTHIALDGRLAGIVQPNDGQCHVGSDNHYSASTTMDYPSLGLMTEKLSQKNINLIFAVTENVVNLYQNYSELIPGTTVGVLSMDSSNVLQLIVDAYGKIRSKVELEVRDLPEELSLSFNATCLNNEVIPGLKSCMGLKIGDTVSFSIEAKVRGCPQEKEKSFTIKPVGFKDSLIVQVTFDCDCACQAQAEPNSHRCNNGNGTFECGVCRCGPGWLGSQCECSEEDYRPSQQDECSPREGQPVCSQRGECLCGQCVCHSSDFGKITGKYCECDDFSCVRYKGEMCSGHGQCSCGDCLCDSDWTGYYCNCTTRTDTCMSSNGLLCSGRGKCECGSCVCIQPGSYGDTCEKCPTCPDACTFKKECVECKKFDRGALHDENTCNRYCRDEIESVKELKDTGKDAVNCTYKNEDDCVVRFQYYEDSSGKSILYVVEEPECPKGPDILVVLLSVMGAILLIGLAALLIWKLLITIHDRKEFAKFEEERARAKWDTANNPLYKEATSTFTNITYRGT

## O=C(O)CC1Cc2ccc(OCCCNc3ccccn3)cc2CCC1=O (racemic) [(±)-2-(2-Pyridylamino)propoxy-6,7,8,9-tetrahydro-7-oxo-5H-benzocycloheptenyl-6-acetic acid]
[1]
  Ki: ~0.023 µM

## cylco-S,S-N^α -acetyl-cysteinyl-N^α -methyl-argininyl-glycyl-aspartyl-penicillamine
osteoclasts
  inhibition of attachment of osteoclasts to bone: inhibits osteoclast attachment to bone

## echistatin
osteoclasts
  inhibition of attachment of osteoclasts to bone: inhibits attachment of osteoclasts to bone
Bone resorption [2]
  inhibition of bone resorption in tissue culture: potent inhibitor of bone resorption in tissue culture
Bone resorption [3]
  inhibition of bone resorption in vivo: inhibits bone resorption in vivo in the rat
